31 compounds from patent publication US9795607B2, “Substituted pyrrolopyrimidine compounds, compositions thereof, and methods of treatment therewith” (Signal Pharmaceutical, LLC, priority 2013, dated 2017) can be followed below.

Where two headings read alike, the source gives them in different places.

In this test the test system is Triple negative breast cancer cell line CAL51. Kind of test: Cell Titer Glo proliferation assay, CAL51. It counts as cell-based. The following applies: Homo sapiens, CAL-51, read-out: Act. Level. A digest of the protocol:
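CAL51 cells grown in DMEM or RPMI1640 with 10% FBS and 2 mM L-glutamine, cultured overnight, then exposed to serially diluted compound (0.2% DMSO final) for 72 h. Viability read by Cell Titer Glo luminescence.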
For orientation: ATP-based viability assays read luminescence as a measure of living cells.

Setting [1] is: CAL51 cell proliferation, Cell Titer Glo.
Where [2] appears, read: CAL51 cell proliferation (Table 1).

`Cc1nc2ccc(-c3c[nH]c4nc(Nc5cnn(C6CCOCC6)c5Cl)nc(OC5CCCC5)c34)cc2o1` [Example 377, N-(5-chloro-1-(tetrahydro-2H-pyran-4-yl)-1H-pyrazol-4-yl)-4-(cyclopentyloxy)-5-(2-methylbenzo[d]oxazol-6-yl)-7H-pyrrolo[2,3-d]pyrimidin-2-amine]: under setting [1], the IC50 is under 0.1 µM.
Still for that read-out and setting: the result for `COCCn1ncc(Nc2nc(OC3CCCC3)c3c(-c4ccc5nc(C)oc5c4)c[nH]c3n2)c1Cl` [Example 378, N-(5-chloro-1-(2-methoxyethyl)-1H-pyrazol-4-yl)-4-(cyclopentyloxy)-5-(2-methylbenzo[d]oxazol-6-yl)-7H-pyrrolo[2,3-d]pyrimidin-2-amine] reads under 0.1 µM.
Consider `COc1cc(C(=O)NC2COC2)ccc1Nc1nc(OC2(C)CCC2)c2c(-c3ccc4nc(C)oc4c3)c[nH]c2n1` [Example 379, 3-methoxy-4-(5-(2-methylbenzo[d]oxazol-6-yl)-4-(1-methylcyclobutoxy)-7H-pyrrolo[2,3-d]pyrimidin-2-ylamino)-N-(oxetan-3-yl)benzamide], for which the IC50 under setting [1] was under 0.1 µM.
Turning to `COc1cc(C(=O)NC2COC2)ccc1Nc1nc(OC)c2c(-c3ccc4c(C)noc4c3)c[nH]c2n1` [Example 380, 3-methoxy-4-(4-methoxy-5-(3-methylbenzo[d]isoxazol-6-yl)-7H-pyrrolo[2,3-d]pyrimidin-2-ylamino)-N-(oxetan-3-yl)benzamide], the IC50 under setting [1] lay within 0.1 to 0.4 µM.
`COc1cc(C(=O)NC2COC2)ccc1Nc1nc(OC)c2c(-c3ccnc(F)c3)c[nH]c2n1` [Example 381, 4-(5-(2-fluoropyridin-4-yl)-4-methoxy-7H-pyrrolo[2,3-d]pyrimidin-2-ylamino)-3-methoxy-N-(oxetan-3-yl)benzamide]: the IC50 under setting [1] was 0.1 to 0.4 µM.
Same read-out and setting: the result for `COc1cc(C(=O)NC2COC2)ccc1Nc1nc(OC)c2c(-c3cnn(C)c3)c[nH]c2n1` [Example 382, 3-methoxy-4-(4-methoxy-5-(1-methyl-1H-pyrazol-4-yl)-7H-pyrrolo[2,3-d]pyrimidin-2-ylamino)-N-(oxetan-3-yl)benzamide] reads 0.1 to 0.4 µM; that for `COc1cc(C(=O)NC2COC2)ccc1Nc1nc(OC)c2c(-c3ccnc(C)c3)c[nH]c2n1` [Example 383, 3-methoxy-4-(4-methoxy-5-(2-methylpyridin-4-yl)-7H-pyrrolo[2,3-d]pyrimidin-2-ylamino)-N-(oxetan-3-yl)benzamide], under 0.1 µM.
Turning to `COc1cc(C(=O)NC2COC2)ccc1Nc1nc(OC)c2c(-c3cc(C)nc(C)c3)c[nH]c2n1` [Example 384, 4-(5-(2,6-dimethylpyridin-4-yl)-4-methoxy-7H-pyrrolo[2,3-d]pyrimidin-2-ylamino)-3-methoxy-N-(oxetan-3-yl)benzamide], the IC50 under setting [1] is under 0.1 µM.
With `CCn1ncc(Nc2nc(OC3CCCC3)c3c(-c4ccc5nc(C)oc5c4)c[nH]c3n2)c1Cl` [Example 385, N-(5-chloro-1-ethyl-1H-pyrazol-4-yl)-4-(cyclopentyloxy)-5-(2-methylbenzo[d]oxazol-6-yl)-7H-pyrrolo[2,3-d]pyrimidin-2-amine], the IC50 under setting [1] was in the range of 0.1 to 0.4 µM.
On the same count and under the same terms, the result for `COCCOc1nc(Nc2ccc(C(=O)NC3CN(C)C3)cc2OC)nc2[nH]cc(-c3ccc4nc(C)oc4c3)c12` [Example 386, 3-methoxy-4-(4-(2-methoxyethoxy)-5-(2-methylbenzo[d]oxazol-6-yl)-7H-pyrrolo[2,3-d]pyrimidin-2-ylamino)-N-(1-methylazetidin-3-yl)benzamide] reads 1 to 10 µM; that for `COc1cc(C(=O)NC2COC2)ccc1Nc1nc(OC)c2c(-c3cn(C)nc3C)c[nH]c2n1` [Example 387, 4-(5-(1,3-dimethyl-1H-pyrazol-4-yl)-4-methoxy-7H-pyrrolo[2,3-d]pyrimidin-2-ylamino)-3-methoxy-N-(oxetan-3-yl)benzamide], 1 to 10 µM; that for `CNC(=O)c1ccc(Nc2nc(OC)c3c(-c4ccc5c(C)noc5c4)c[nH]c3n2)c(OC)c1` [Example 388, 3-methoxy-4-(4-methoxy-5-(3-methylbenzo[d]isoxazol-6-yl)-7H-pyrrolo[2,3-d]pyrimidin-2-ylamino)-N-methylbenzamide], 0.1 to 0.4 µM.
Consider `COc1cc(-c2c[nH]c3nc(Nc4ccc(C(=O)NC5COC5)cc4OC)nc(OC)c23)ccn1` [Example 389, 3-methoxy-4-(4-methoxy-5-(2-methoxypyridin-4-yl)-7H-pyrrolo[2,3-d]pyrimidin-2-ylamino)-N-(oxetan-3-yl)benzamide], for which, under setting [1], the IC50 is under 0.1 µM.
For the compound `COc1nc(Nc2ccc(C(=O)N(C)C)cc2C)nc2[nH]cc(-c3ccc(F)cc3)c12` [Example 390, 4-(5-(4-fluorophenyl)-4-methoxy-7H-pyrrolo[2,3-d]pyrimidin-2-ylamino)-N,N,3-trimethylbenzamide], the IC50 under setting [1] was in the range of 1 to 10 µM.
The same measure, in the same setting: the result for `COc1ccc(-c2c[nH]c3nc(Nc4ccc(C(=O)N(C)C)cc4C)nc(OC)c23)cc1` [Example 391, 4-(4-methoxy-5-(4-methoxyphenyl)-7H-pyrrolo[2,3-d]pyrimidin-2-ylamino)-N,N,3-trimethylbenzamide] reads 0.1 to 0.4 µM; that for `COc1cc(C(=O)N(C)C)ccc1Nc1nc(OC)c2c(-c3ccncc3)c[nH]c2n1` [Example 392, 3-methoxy-4-(4-methoxy-5-(pyridin-4-yl)-7H-pyrrolo[2,3-d]pyrimidin-2-ylamino)-N,N-dimethylbenzamide], under 0.1 µM; that for `COc1nc(Nc2cn(C)nc2C)nc2[nH]cc(-c3ccncc3)c12` [Example 393, N-(1,3-dimethyl-1H-pyrazol-4-yl)-4-methoxy-5-(pyridin-4-yl)-7H-pyrrolo[2,3-d]pyrimidin-2-amine], 0.1 to 0.4 µM.
Regarding `COc1cc(C(=O)NC2COC2)ccc1Nc1nc(OC)c2c(-c3ccnc(Cl)c3)c[nH]c2n1` [Example 394, 4-(5-(2-chloropyridin-4-yl)-4-methoxy-7H-pyrrolo[2,3-d]pyrimidin-2-ylamino)-3-methoxy-N-(oxetan-3-yl)benzamide], the IC50 under setting [1] is 0.1 to 0.4 µM.
For the compound `COc1cc(C(=O)NC2COC2)ccc1Nc1nc(OC)c2c(-c3ccncn3)c[nH]c2n1` [Example 395, 3-methoxy-4-(4-methoxy-5-(pyrimidin-4-yl)-7H-pyrrolo[2,3-d]pyrimidin-2-ylamino)-N-(oxetan-3-yl)benzamide], under setting [1], the IC50 fell in the range of 1 to 10 µM.
Regarding `COc1nc(Nc2ccc(C(=O)NC3COC3)cc2C)nc2[nH]cc(-c3ccncc3)c12` [Example 396, 4-(4-methoxy-5-(pyridin-4-yl)-7H-pyrrolo[2,3-d]pyrimidin-2-ylamino)-3-methyl-N-(oxetan-3 yl)benzamide], the IC50 under setting [1] is 0.1 to 0.4 µM.
Consider `COc1nc(Nc2ccc(C(=O)N(C)C)cc2C)nc2[nH]cc(-c3ccc(-c4ncc[nH]4)cc3)c12` [Example 397, 4-(5-(4-(1H-imidazol-2-yl)phenyl)-4-methoxy-7H-pyrrolo[2,3-d]pyrimidin-2-ylamino)-N,N,3-trimethylbenzamide], for which, under setting [1], the IC50 was under 0.1 µM.
`COc1nc(Nc2ccc(C(=O)N(C)C)cc2C)nc2[nH]cc(-c3cnn(C)c3)c12` [Example 398, 4-(4-methoxy-5-(1-methyl-1H-pyrazol-4-yl)-7H-pyrrolo[2,3-d]pyrimidin-2-ylamino)-N,N,3-trimethylbenzamide]: the IC50 under setting [1] was in the range of 0.4 to 1 µM.
On to `COc1nc(Nc2ccc(C(=O)N(C)C)cc2C)nc2[nH]cc(-c3ccc4[nH]c(C)nc4c3)c12` [Example 399, 4-(4-methoxy-5-(2-methyl-1H-benzo[d]imidazol-5-yl)-7H-pyrrolo[2,3-d]pyrimidin-2-ylamino)-N,N,3-trimethylbenzamide], for which the IC50 under setting [2] is under 0.1 µM.
As to `COc1nc(Nc2ccc(C(=O)N(C)C)cc2C)nc2[nH]cc(-c3ccc4c(C)noc4c3)c12` [Example 400, 4-(4-methoxy-5-(3-methylbenzo[d]isoxazol-6-yl)-7H-pyrrolo[2,3-d]pyrimidin-2-ylamino)-N,N,3-trimethylbenzamide], under setting [2], the IC50 was under 0.1 µM.
With `COc1nc(Nc2ccnn2C)nc2[nH]cc(-c3ccncc3)c12` [Example 401, 4-methoxy-N-(1-methyl-1H-pyrazol-5-yl)-5-(pyridin-4-yl)-7H-pyrrolo[2,3-d]pyrimidin-2-amine], under setting [2], the IC50 lay in the range of 1 to 10 µM.
As to `Cc1cc(C(=O)N(C)C)ccc1Nc1nc(OC(C)C)c2c(-c3ccnc(F)c3)c[nH]c2n1` [Example 402, 4-(5-(2-fluoropyridin-4-yl)-4-isopropoxy-7H-pyrrolo[2,3-d]pyrimidin-2-ylamino)-N,N,3-trimethylbenzamide], under setting [2], the IC50 is under 0.1 µM.
With `COc1cc(C(=O)N(C)C)ccc1Nc1nc(OC(C)C)c2c(-c3ccnc(F)c3)c[nH]c2n1` [Example 403, 4-(5-(2-fluoropyridin-4-yl)-4-isopropoxy-7H-pyrrolo[2,3-d]pyrimidin-2-ylamino)-3-methoxy-N,N-dimethylbenzamide], the IC50 under setting [2] is under 0.1 µM.
Regarding `COc1cc(C(=O)NC2COC2)ccc1Nc1nc(OC)c2c(-c3ccc4[nH]c(C)nc4c3)c[nH]c2n1` [Example 404, 3-methoxy-4-(4-methoxy-5-(2-methyl-1H-benzo[d]imidazol-5-yl)-7H-pyrrolo[2,3-d]pyrimidin-2-ylamino)-N-(oxetan-3-yl)benzamide], the IC50 under setting [2] fell in the range of 0.1 to 0.4 µM.
As for `COc1cc(C(=O)NC2COC2)ccc1Nc1nc(OC)c2c(-c3ccnnc3)c[nH]c2n1` [Example 405, 3-methoxy-4-(4-methoxy-5-(pyridazin-4-yl)-7H-pyrrolo[2,3-d]pyrimidin-2-ylamino)-N-(oxetan-3-yl)benzamide], the IC50 under setting [2] was 0.4 to 1 µM.
For the compound `COc1nc(Nc2ccc(C(=O)N(C)C3COC3)cc2C)nc2[nH]cc(-c3ccncc3)c12` [Example 406, 4-(4-methoxy-5-(pyridin-4-yl)-7H-pyrrolo[2,3-d]pyrimidin-2-ylamino)-N,3-dimethyl-N-(oxetan-3-yl)benzamide], the IC50 under setting [2] lay in the range of 0.1 to 0.4 µM.
Regarding `COc1nc(Nc2ccc(C(=O)N(C)C)cc2C)nc2[nH]cc(-c3ccc4nc(C)n(C)c4c3)c12` [Example 407, 4-(5-(1,2-dimethyl-1H-benzo[d]imidazol-6-yl)-4-methoxy-7H-pyrrolo[2,3-d]pyrimidin-2-ylamino)-N,N,3-trimethylbenzamide], under setting [2], the IC50 was 0.1 to 0.4 µM.
